This passage reports pest or weed control results from patent US20150344466A1 (SUMITOMO CHEMICAL COMPANY, LIMITED, priority 2013, published 2015).

Holding throughout (assay type): in vivo
In test [1] the test system is Culex pipiens pallens. The test is described as follows: Knockdown spray test on adult Culex pipiens pallens (Test Example 4). The settings on record: topical, 0.25 h, active ingredient 0.1% w/v, 0.5 ml sprayed, within 15 minutes, read-out: knockdown rate of the test insects within 15 minutes. In outline: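 Ten adult mosquitoes in a gauze-covered cup inside a 46×46×70 cm chamber were sprayed with 0.5 ml of test solution from 30 cm at 0.4 kg/cm^2. The cup was removed at once, and knocked-down insects were counted at 2, 5 and 15 min; knockdown rate (%) = knocked-down/tested ×100.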

Test [2] concerns Musca domestica. The test is described as follows: Knockdown spray test on adult Musca domestica (Test Example 3). To be noted: topical, 0.25 h, active ingredient 2.0% w/v, 0.5 ml sprayed, within 15 minutes, read-out: knockdown rate of the test insects within 15 minutes. Here is the method:
Ten adult Musca domestica (five males and five females) were released in a polyethylene cup (bottom diameter: 10.6 cm), and the cup was covered with a 16-mesh nylon gauze. The polyethylene cup was placed on the bottom of a test chamber (bottom: 46 cm×46 cm, height: 70 cm). From a height of 30 cm above the upper surface of the polyethylene cup, 0.5 ml of the test drug solution was sprayed using a spray gun (a spraying pressure of 0.9 kg/cm^2). Immediately after spraying, the cup was taken out from the test chamber, and after 2 minutes, 5 minutes and 15 minutes, the number of knocked-down insects was counted to obtain a knockdown rate. The knockdown rate was calculated by the following equation.
Knockdown Rate (%)=(Number of Knocked-down Insects/Number of Tested Insects)×100

For test [3], the system named is Culex pipiens pallens. The test is described as follows: Larvicidal test on Culex pipiens pallens, eight days (Test Example 7). To be noted: 192 h; last-instar larvae of Culex pipiens pallens; 3.5 ppm in water; eight days later; read-out: death rate. Here is the method: 20 last-instar larvae of Culex pipiens pallens were released into a liquid to which 0.7 ml of the above test drug solution was added to 100 ml of ion-exchanged water (a concentration of the active ingredient of 3.5 ppm). Eight days later, the life and death of the Culex pipiens pallens was examined, and the death rate was calculated. The death rate was calculated by the following equation.
Death rate (%)=(Number of dead insects/Number of tested insects)×100

For test [4], the system named is Blattella germanica. Description: Knockdown spray test on Blattella germanica, 2.0% w/v oil formulation (Test Example 1). The settings on record: topical, 0.25 h, active ingredient 2.0% w/v, 1.5 ml sprayed, within 15 minutes, read-out: knockdown rate of the test insects within 15 minutes. A digest of the protocol:
(§1)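 Ten German cockroaches (5 males, 5 females) in a mesh-bottomed, butter-walled container were sprayed with 1.5 ml test solution from 60 cm at 0.42 kg/cm^2 inside a chamber.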

Test [5] deals with Musca domestica. Description: Filter paper/sucrose bait death rate test on Musca domestica (Test Example 5). The settings on record: female imagoes of Musca domestica, 0.7 ml on filter paper, after 24 hours. In outline: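 Filter paper in a 5.5 cm cup dosed with 0.7 ml test drug solution, with 30 mg sucrose as bait. Ten female adult houseflies released and cup sealed. Dead insects counted after 24 h; death rate (%) = dead/tested × 100.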

The test system of test [6] is Blattella germanica. Description: Knockdown spray test on Blattella germanica, 0.1% w/v oil formulation (Test Example 2). To be noted: topical, 0.25 h, active ingredient 0.1% w/v, 1.5 ml sprayed, within 15 minutes, read-out: knockdown rate of the test insects within 15 minutes. A digest of the protocol:
as §1

The next test has as its system Spodoptera litura. The test is described as follows: Foliar spray test on Spodoptera litura on cabbage (Test Example 11). To be noted: 96 h, fourth instar larvae of Spodoptera litura on cabbage, 500 ppm spray 20 ml/cup, after 4 days, read-out: controlling value. Here is the method: On the other hand, cabbage was planted in a polyethylene cup, and grown until the third-fourth true leaf was spread. The test spray solution was sprayed to the cabbage at a ratio of 20 ml/cup. After the drug solution sprayed orn the cabbage was dried, 10 fourth instar larvae of Spodoptera litura were allowed to parasitize the cabbage. After 4 days, the number of surviving Spodoptera litura on the cabbage leaves was examined, and the controlling value was calculated according to the following equation. Controlling value (%)={1−(Cb×Tai)/([…])}×100 In the equation, the symbols represent as follows. Cb: the number of insects in a non-treated section before treatment Cai: the number of insects in a non-treated section on observation Tb: the number of insects in a treated section before treatment Tai: the number of insects in a treated section on observation

The next test relates to Plutella xylostella. The test is described as follows: Foliar spray test on Plutella xylostella on cabbage (Test Example 10). To be noted: 120 h, third instar larvae of Plutella xylostella on cabbage, 500 ppm spray 20 ml/cup, after five days, read-out: controlling value. A digest of the protocol:
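Cabbage at the third–fourth true-leaf stage sprayed with test solution at 20 ml/cup, dried, then infested with 10 third-instar larvae. Insects counted after five days; controlling value (%) calculated from treated and non-treated counts before treatment and at observation.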

On to `O=C(NCC1CCOCC1)c1cc(COCc2ccc3ccccc3c2)on1` [(21), N-(tetrahydropyran-4-ylmethyl)-5-(2-naphthylmethoxymethyl)isoxazole-3-carboxamide], for which, in the test on Culex pipiens pallens [1], the pest or weed control at 0.1 % strength is not below 80%. The pest or weed control at 2 % strength with Musca domestica [2] and in the test on Blattella germanica [4] was not below 80% each time. In addition, the pest or weed control at 3.5 ppm in the test with Culex pipiens pallens [3] was not below 90%.
Consider `O=C(NCC1CCOCC1)c1cc(COCc2cccc(Cl)c2)on1` [(69), N-(tetrahydropyran-4-ylmethyl)-5-(3-chlorobenzyloxymethyl)isoxazole-3-carboxamide], for which the results for the pest or weed control at 500 ppm in the test with Musca domestica [5], in the test with Spodoptera litura and with Plutella xylostella were not below 90%, not below 80% and not below 90%, respectively. Also, the pest or weed control at 0.1 % strength in the test on Blattella germanica [6] and in the test with Culex pipiens pallens [1] was not below 80% in each case.
For the compound `O=C(NCC1CCOCC1)c1cc(COCc2cccc(Br)c2)on1` [(77), N-(tetrahydropyran-4-ylmethyl)-5-(3-bromobenzyloxymethyl)isoxazole-3-carboxamide], the pest or weed control at 0.1 % strength in the test on Blattella germanica [6] and in the test on Culex pipiens pallens [1] was not below 80% in each case. The pest or weed control at 500 ppm in the test with Spodoptera litura is not below 80%. In the test on Culex pipiens pallens [3], the pest or weed control at 3.5 ppm was not below 90%.
For the compound `O=C(NCC1CCOCC1)c1cc(COCc2cccc(OC(F)(F)F)c2)on1` [(79)], the results for the pest or weed control at 500 ppm in the test on Musca domestica [5], with Spodoptera litura and in the test with Plutella xylostella were not below 90%, not below 80% and not below 90%, respectively. The pest or weed control at 0.1 % strength in the test on Blattella germanica [6] and in the test on Culex pipiens pallens [1] was not below 80% in each case.
For `O=C(NCC1CCOC1)c1cc(COCc2ccc(Br)cc2)on1` (stereo not drawn) [(91), N-(tetrahydrofuran-3-ylmethyl)-5-(4-bromobenzyloxymethyl)isoxazole-3-carboxamide], the pest or weed control at 0.1 % strength in the test on Blattella germanica [6] and in the test with Culex pipiens pallens [1] was not below 80% in each case. The pest or weed control at 3.5 ppm in the test with Culex pipiens pallens [3] is not below 90%. Also, the pest or weed control at 500 ppm in the test with Plutella xylostella was not below 90%.
On to `O=C(NCC1CCOC1)c1cc(COCc2cc3ccccc3s2)on1` (stereo not drawn) [(112), N-(tetrahydrofuran-3-ylmethyl)-5-(benzothiophen-2-ylmethoxymethyl)isoxazole-3-carboxamide], for which the pest or weed control at 0.1 % strength in the test with Blattella germanica [6] and with Culex pipiens pallens [1] was not below 80% in each case. For the same compound, the pest or weed control at 500 ppm in the test with Spodoptera litura is not below 80%.
With `O=C(NCC1CCOC1)c1cc(CCCCOc2ccccc2)on1` (stereo not drawn) [(146), N-(tetrahydrofuran-3-ylmethyl)-5-(4-phenoxybutyl)isoxazole-3-carboxamide], the pest or weed control at 0.1 % strength with Culex pipiens pallens [1] is not below 80%. The pest or weed control at 2 % strength in the test on Musca domestica [2] and with Blattella germanica [4] was not below 80% in each case. The pest or weed control at 3.5 ppm in the test on Culex pipiens pallens [3] was not below 90%.
For the compound `O=C(NCC1CCOC1)c1cc(COc2cccc(Br)c2)on1` (stereo not drawn) [(196), N-(tetrahydrofuran-3-ylmethyl)-5-(3-bromophenoxymethyl)isoxazole-3-carboxamide], the pest or weed control at 0.1 % strength in the test with Blattella germanica [6] and in the test on Culex pipiens pallens [1] was not below 80% each time. Besides, in the test on Spodoptera litura, the pest or weed control at 500 ppm was not below 80%.
Take `O=C(NCC1CCOCC1)c1cc(COc2cccc(Br)c2)on1` [(197), N-(tetrahydropyran-4-ylmethyl)-5-(3-bromophenoxymethyl)isoxazole-3-carboxamide]: the pest or weed control at 0.1 % strength with Culex pipiens pallens [1] was not below 80%. Besides, in the test on Spodoptera litura, the pest or weed control at 500 ppm was not below 80%.
Turning to `O=C(NCC1CCOC1)c1cc(COc2cccc(C(F)(F)F)c2)on1` (stereo not drawn) [(198), N-(tetrahydrofuran-3-ylmethyl)-5-(3-trifluoromethylphenoxymethyl)isoxazole-3-carboxamide], the pest or weed control at 0.1 % strength in the test with Blattella germanica [6] and with Culex pipiens pallens [1] was not below 80% throughout. Moreover, the pest or weed control at 500 ppm with Spodoptera litura was not below 80%. In addition, in the test on Culex pipiens pallens [3], the pest or weed control at 3.5 ppm was not below 90%.
On to `O=C(NCC1CCOC1)c1cc(COCc2ccc(Cl)cc2F)on1` (stereo not drawn) [(260), N-(tetrahydrofuran-3-ylmethyl)-5-(4-chloro-2-fluorobenzyloxymethyl)isoxazole-3-carboxamide], for which the results for the pest or weed control at 500 ppm in the test with Musca domestica [5] and in the test on Spodoptera litura were not below 90% and not below 80%, respectively. The pest or weed control at 0.1 % strength in the test with Blattella germanica [6] and in the test with Culex pipiens pallens [1] was not below 80% each time. Moreover, the pest or weed control at 3.5 ppm in the test with Culex pipiens pallens [3] is not below 90%.
Consider `O=C(NCC1CCOC1)c1cc(COCc2ccc(Br)c(F)c2)on1` (stereo not drawn) [(272), N-(tetrahydrofuran-3-ylmethyl)-5-(4-bromo-3-fluorobenzyloxymethyl)isoxazole-3-carboxamide], for which the pest or weed control at 0.1 % strength in the test with Culex pipiens pallens [1] was not below 80%. Moreover, the pest or weed control at 500 ppm in the test with Spodoptera litura is not below 80%; with Plutella xylostella it was not below 90%.
Regarding `O=C(NCC1CCOC1)c1cc(Cc2ccc(F)c(F)c2)on1` (stereo not drawn) [(306), N-(tetrahydrofuran-3-ylmethyl)-5-(3,4-difluorobenzyl)isoxazole-3-carboxamide], the values for the pest or weed control at 500 ppm in the test with Musca domestica [5], with Spodoptera litura and in the test on Plutella xylostella were not below 90%, not below 80% and not below 90%, respectively. The pest or weed control at 0.1 % strength in the test with Blattella germanica [6] and in the test on Culex pipiens pallens [1] was not below 80% throughout.
As to `O=C(NCC1CCOC1)c1cc(Cc2ccc(OC(F)(F)F)cc2)on1` (stereo not drawn) [(315), N-(tetrahydrofuran-3-ylmethyl)-5-(4-trifluoromethoxybenzyl) isoxazole-3-carboxamide], the pest or weed control at 500 ppm in the test on Musca domestica [5] is not below 90%; in the test on Spodoptera litura, not below 80%. The pest or weed control at 0.1 % strength with Culex pipiens pallens [1] is not below 80%. Besides, the pest or weed control at 3.5 ppm with Culex pipiens pallens [3] is not below 90%.
`O=C(NCC1CCOC1)c1cc(Cc2cccc(F)c2)on1` (stereo not drawn) [(318), N-(tetrahydrofuran-3-ylmethyl)-5-(3-fluorobenzyl)isoxazole-3-carboxamide]: the pest or weed control at 0.1 % strength with Blattella germanica [6] and in the test on Culex pipiens pallens [1] was not below 80% each time. The pest or weed control at 500 ppm in the test with Spodoptera litura was not below 80%; in the test with Plutella xylostella it was not below 90%.
In the case of `O=C(NCC1CCOC1)c1cc(Cc2cccc(Cl)c2)on1` (stereo not drawn) [(321), N-(tetrahydrofuran-3-ylmethyl)-5-(3-chlorobenzyl)isoxazole-3-carboxamide], the pest or weed control at 500 ppm was not below 90% in the test with Musca domestica [5] and not below 80% in the test on Spodoptera litura. In addition, the pest or weed control at 0.1 % strength in the test with Blattella germanica [6] and in the test on Culex pipiens pallens [1] was not below 80% throughout.
Take `O=C(NCC1CCOC1)c1cc(Cc2ccc(Cl)c(Cl)c2)on1` (stereo not drawn) [(325), N-(tetrahydrofuran-3-ylmethyl)-5-(3,4-dichlorobenzyl)isoxazole-3-carboxamide]: the pest or weed control at 500 ppm was not below 90% in the test with Musca domestica [5] and not below 80% in the test on Spodoptera litura. Moreover, the pest or weed control at 0.1 % strength with Blattella germanica [6] and in the test on Culex pipiens pallens [1] was not below 80% each time.
Take `CC1(CNC(=O)c2cc(CCCc3ccc4ccccc4c3)on2)COC1` [(332), N-(3-methyloxetan-3-ylmethyl)-5-[3-(2-naphthyl)propyl]isoxazole-3-carboxamide]: the pest or weed control at 0.1 % strength in the test with Blattella germanica [6] and in the test on Culex pipiens pallens [1] was not below 80% each time. Also, the pest or weed control at 2 % strength in the test with Musca domestica [2] and in the test with Blattella germanica [4] was not below 80% throughout. Also, the pest or weed control at 3.5 ppm in the test on Culex pipiens pallens [3] was not below 90%.
